Here are results for 2 compounds from patent US20100093638A1, “TREAMENT FOR CHEMICAL SUBSTANCE ADDICTION” (priority 2007, published 2010).

Test [1] deals with ghrelin receptor (GHS-R1A) knockout mice. The conditions noted are these: alcohol 1.0 g/kg ip; GHSR knockout mice vs wt/wt.
Protocol: The mice were implanted with a microdialysis probe in the nucleus accumbens for measurements of extracellular dopamine levels. […] The mice were connected to the microdialysis apparatus via a liquid swivel (CMA/Microdialysis AB, Stockholm, Sweden) and were able to move freely during the experiment. After one hour of habituation to the microdialysis perfusion set up, perfusion samples (30 μl) were collected every 20 minutes. Five samples were collected prior to the first alcohol challenge. The baseline dopamine level is defined as the averaged concentration of the three consecutive samples before the first alcohol challenge. Thereafter vehicle (saline, ip) was administered at time 0 minutes.
For test [2] the test system is unchanged. The note with it: alcohol 1.0 g/kg i.p.; GHS-R knockout mice vs wildtype; P<0.05.
Description: Locomotor activity was registered in eight sound attenuated, ventilated and dimly lit locomotor boxes (420×420×200 mm, Plexiglas®). Five by five rows of photocell beams at the floor level of the box allowed a computer-based system to register the activity of the mice. The mice were allowed to habituate to the environment in the box for one hour before drug challenge and initialization of the experiment. […] Locomotor activity was defined as the accumulated number of new photocell beams interrupted during a 60-minute period.
Another test deals with mice. Description: Effects of central ghrelin injection on alcohol intake and alcohol preference, two-bottle free choice paradigm. Type of test: in vivo. The conditions noted are these: for average alcohol intake / average alcohol preference: ghrelin 2 μg in 1 μl into third ventricle; for average alcohol intake: baseline 1.65; for average alcohol preference: day before 26.76%. An excerpt:
The following studies sought to determine whether ghrelin increases alcohol intake and the preference for alcohol in mice selected on the basis of their spontaneous level of alcohol intake. We tested the effects of ghrelin injection into the brain ventricles on alcohol consumption and alcohol preference in mice.
All mice used in this study were selected on the basis of their spontaneously medium level of alcohol intake. Initially, the mice were able to choose freely between alcohol solution (10%) and water. When they had established a stable alcohol intake (approximately 20-80% of their total fluid intake was alcohol) they began a training schedule that gave them access to 10% alcohol for 90 min ever day over two weeks. The mice were then implanted with a cannula into the third ventricle of the brain for subsequent injection. During a baseline period, spontaneous alcohol intake was measured during a 90 min period average for 3 measurements taken on 3 days using a two-bottle free choice paradigm (i.e. water or 10% alcohol). The same protocol was used after ghrelin/vehicle injection on the experimental days.

Setting [3] is: intraventricular administration, p<0.05, paired t-test.

No end group written: not given here.

With `CCO` [alcohol], in test [1], the “alcohol-induced accumbal dopamine release” value is listed as “blunted”. For the same compound, the alcohol-induced locomotor activity entry in test [2] is “do not show an alcohol-induced locomotor activity”.
On to “ghrelin (GSSFLSPEHQRVQQRKESKKPPAKLQPR; ends and bridges not checked; UniProt Q9UBU3 24-51, looked up) [endogenous ligand for GHS-R, secreted by stomach tissue; purchasable from Bachem]”, for which, in the test with mice (experiment day one), the average alcohol intake is given as 1.72 g/kg/1.5 hr and the average alcohol preference is given as 31.72%. In the test with mice (experiment day two), the average alcohol intake stood at 2.15 g/kg/1.5 hr and the average alcohol preference is recorded as 33.70%. For the same compound, in the test with mice (setting [3]), the “effect on alcohol intake compared to the day before the experiments” value is listed as “increased the alcohol intake” and the “effect on alcohol preference compared to the day before the experiments” value was “significant increase of alcohol preference”.
